Among the data in a melting point compilation (Tetko et al.; mined from patent text by program, amines drawn as free bases though some values may be those of a salt) are melting point values, retold here.

As a reminder, the melting point is the temperature, or range, at which the solid turns liquid.

The structures appear in SMILES notation.

`O=C(c1cn(C(c2ccccc2)(c2ccccc2)c2ccccc2)cn1)c1cc(Cl)cc2c1OCOC2`: the melting point lay within 175 to 182 °C.

In turn, `CN(O)C(=O)CCc1ccc2c(c1)Cc1ccccc1CO2` gave a melting point of 120 to 122 °C.

In turn, `COc1ccc(-n2c(-c3cc(-c4ccccc4)c(N4CCOCC4)s3)nc3ccccc3c2=O)cc1` gave a melting point of 164 to 165 °C.

`C=C(C)C(=O)Nc1cccc(C(=O)NC2=NN(c3c(Cl)cc(Cl)cc3Cl)C(=O)C2c2cc[nH]n2)c1` (stereo not drawn): the melting point was in the range of 227 to 230 °C.

In the case of `CC(O)(C#Cc1ccc(S(=O)(=O)c2ccncc2)cc1)C(F)(F)F` (stereo not drawn), the melting point lay within 122 to 125 °C.

`CC(C)c1nc(CCOCc2ccccc2)n(Cc2cccc([N+](=O)[O-])c2)c1Sc1cc(Cl)cc(Cl)c1` registered a melting point of 119 to 122 °C.

`CC(C)CNC1NC(=O)N(c2ccccc2C(=O)O)C(=O)N1` came in with a melting point above 300 °C.

As for `COC(=O)c1ccc(C(=O)NS(=O)(=O)c2ccccc2)cc1`, the melting point was 267 to 270 °C.

`C=CCN(C)S(=O)(=O)CC(=O)C=C(C)N` registered a melting point of 86 to 89 °C.

Compound `CC(=O)N1[C@@H](C)[C@@H]2C(=O)N(Cc3ccccc3)C(=O)[C@@H]2[C@@H]1c1ccc(C#N)cc1` (racemic) gave a melting point of 107 to 109 °C.

With `Cc1cccc(C(=O)c2ncccc2C(=O)O)c1`, the melting point fell in the range of 184 to 189 °C.

`CC(=O)Nc1ccc(N2CCN(Cc3ncc(-c4ccccc4)o3)CC2)cc1` displayed a melting point of 196 to 197 °C.

As to `CCCCCCCCCCCCS(=O)CCOc1ccc(CCC(=O)C(F)(F)F)cc1` (stereo not drawn), the melting point was 98 to 100 °C.

Compound `N#Cc1nc(C#Cc2ccccc2)c(C#Cc2ccccc2)nc1C#N` gave a melting point of 226 to 227 °C.

For `Cc1nnc(C(C)C)n1C1CC2CCC(C1)N2CCC(NC(=O)C1CCC(F)(F)CC1)c1ccc(N)cc1` (stereo not drawn), the melting point is 103 to 105 °C.

On to `CC(C)c1cc(-c2ccc(F)cc2)c(CO)c(C(C)C)n1`, for which the melting point lay in the range of 88 to 90 °C.

Compound `O=S1(=O)N=CN(C2CC2)c2ccccc21` yielded a melting point of 191 to 194 °C.

Regarding `CCCc1ccc(Br)nn1`, the melting point lay in the range of 35 to 36 °C.

Compound `O=C(O)CCCCc1cccc2cncn12` showed a melting point of 161 to 163 °C.

Compound `CCOC(=O)c1ccc2[nH]cc(CCNC(=O)OC(C)(C)C)c2c1` displayed a melting point of 170 to 171 °C.

In turn, `CN(C)C(=S)Oc1ccc(S(=O)(=O)c2ccc(C#N)cc2)cc1` had a melting point of 158 to 167 °C.

The compound `CC(=O)NC[C@H]1CN(c2ccc(N3CCC(n4nnc(N5CCOCC5)n4)CC3)c(F)c2)C(=O)O1` came in with a melting point of 210 to 214 °C.

Compound `Nc1cc(Br)cc(OCc2ccccc2)c1NC(=O)C1CC1` yielded a melting point of 207 to 208 °C.

In turn, `CCCCCCCCCCCCCCCCCCCC(=O)Nc1ccn(C2OC(CO)C(O)C2O)c(=O)n1` (stereo not drawn) registered a melting point of 138 to 142 °C.

In turn, `COc1cc(Nc2nccc(-c3cccc(O)c3)n2)cc(OC)c1OC` showed a melting point of 191 to 192 °C.

As for `CCOC(=O)[C@H](CNC(=O)OC(C)(C)C)NS(=O)(=O)N(C)C`, the melting point fell in the range of 65 to 67 °C.

For the compound `Cn1c(-c2ccccc2)c(C2=CCC(C(=O)O)CC2)c2ccccc21` (stereo not drawn), the melting point was 171 to 172 °C.

The compound `COc1ccc2c(c1)CCC(C1CCC(O)C1(C)CC(C)(C)O)C2` (stereo not drawn) returned a melting point of 123 to 125 °C.

Turning to `N#Cc1cccc(C(=O)Nc2ccccc2N)c1`, the melting point is 197 to 200 °C.

On to `Cc1c2c(nc3ccccc13)CCN(C(=O)Oc1ccccc1)CC2`, for which the melting point was 150 °C.

As to `CC(C)c1nn(-c2nnc(C(F)(F)F)s2)cc1CCCO`, the melting point is 89 to 90 °C.

In turn, `O=C1NC(=O)C(c2c[nH]c3ccc(Br)cc23)C1c1cc2c3c(ccn3CCC2)c1` (stereo not drawn) displayed a melting point of 195 to 200 °C.

`CC(C(=O)O)c1ccc2cc(OCC=C(Cl)Cl)ccc2c1` (stereo not drawn): the melting point was in the range of 107 to 109 °C.

As to `COc1nc2ccccc2n(-c2ccc(Cl)cc2)c1=O`, the melting point was 245 to 247 °C.

With `CCCCNC(=O)Oc1ccc(C(O)(CC)c2ccc(Cl)cc2)cc1` (stereo not drawn), the melting point is 78 to 79 °C.

With `CCOc1c(C)c(N2CCN(c3ccc(OC)cc3)CC2)c(C)c2c1OC(C)C2` (stereo not drawn), the melting point fell in the range of 106 to 108 °C.

Turning to `Cc1nccn1-c1ccc(-c2cnc([C@H](Cc3ccccn3)N(C=O)c3cc4ccccc4[nH]3)n2C)cc1`, the melting point was in the range of 207 to 211 °C.

The compound `O=C(CCl)Nc1cscn1` had a melting point of 115 to 119 °C.

Turning to `CN(CCCCOCC(=O)O)c1nnc(-c2ccccc2)c(-c2ccccc2)n1`, the melting point was in the range of 108 to 110 °C.

The compound `CC(=O)NNC(=N)c1ncc([N+](=O)[O-])n1C` registered a melting point of 294 °C.

Turning to `CC(C)(C)OC(=O)N1C[C@@H]2C[C@H]1C(=O)N2C(C)(C)C`, the melting point lay in the range of 167 to 168 °C.

Take `Cc1cnc(CNC(=O)c2ccnc(N3CCN(Cc4ccc(F)cc4)C3=O)c2)cn1`: the melting point fell in the range of 169 to 171 °C.

In the case of `CC(C)(C)NC(=O)c1ccc(S(=O)(=O)N2C(=O)C(C)(c3ccccc3Cl)c3cc(O)ccc32)cc1` (stereo not drawn), the melting point was determined as 262 °C.

As to `c1ccc2c(c1)N=C(N1CCNCC1)c1sccc1N2`, the melting point fell in the range of 203 to 206 °C.

Turning to `N#CCN1CCC(OC(c2ccccc2)c2ccccc2)CC1`, the melting point lay within 78 to 80 °C.

Consider `CC(=O)N(C)c1cccc(-c2ccnc3c(C#N)cnn23)c1`, for which the melting point was in the range of 195 to 197 °C.

For `CC(C)(C)C(O)C1C(C(=O)O)C1(C)C` (stereo not drawn), the melting point was found to be 129 °C.

Turning to `Cc1ccc(S(=O)(=O)C(CCCCCc2cccc(C(F)(F)F)c2)C(=O)O)cc1` (stereo not drawn), the melting point came to 62 °C.

In turn, `CNC(=O)C(Cc1ccc(OC)cc1)NC(=O)C(CC(C)C)C(CC(=O)NCC(N)=O)SC(C)=O` (stereo not drawn) registered a melting point of 218 to 219 °C.

Compound `c1cc(-c2ccc(OCCCN3CCCC3)cc2)ccc1OCCCN1CCCCC1` yielded a melting point of 105 to 108 °C.

On to `Cc1nnc(SCC(=O)C23CC4CC(CC(C4)C2)C3)n1Cc1ccc(Cl)cc1`, for which the melting point was 158 to 159 °C.

The compound `COc1nc(NC(=O)NS(=O)(=O)c2ccccc2CCC(F)(F)F)nc(OC)n1` displayed a melting point of 177 to 178 °C.

Consider `N#CCCn1nc(-c2ccc(OCc3ccccc3)cc2)sc1=S`, for which the melting point was 138 °C.

The compound `CC(C)n1nc(-c2nc(NCCN(C)C)c(N)nc2-c2ccccc2)ccc1=O` had a melting point of 188 to 189 °C.

On to `O=CNc1ccc(-c2ccncc2)cc1`, for which the melting point fell in the range of 188 to 190 °C.

On to `O=C1NNC(C=Cc2ccc([N+](=O)[O-])cc2)CS1` (stereo not drawn), for which the melting point is 231 to 240 °C.

In the case of `Cc1cc(CC2CCCCC2)c(NC(=O)OCc2ccccc2)c(=O)n1CC(=O)O`, the melting point is 150 °C.

`Cc1cn2c(n1)-c1ccccc1Nc1ccccc1-2` gave a melting point of 232 to 236 °C.

In the case of `Nc1nc2cc(CO)ccc2n1Cc1cccc2cccnc12`, the melting point was above 260 °C.

Take `CCCCCc1cccn1NS(=O)(=O)C1CCCC=C1C(=O)OCC` (stereo not drawn): the melting point was in the range of 60 to 61 °C.

Regarding `Cc1ccc(C)c(C(C)Sc2cc(C)c3ccccc3n2)c1` (stereo not drawn), the melting point is 84 to 85 °C.

`C=CC[C@H](CC(=O)OC(C)(C)C)C(=O)N[C@H](C(=O)OCc1ccccc1)C(C)(C)C`: the melting point fell in the range of 55 to 57 °C.

`CCCCN1NC(=O)CC2CCc3cc(N)ccc3C21` (stereo not drawn) came in with a melting point of 140 to 142 °C.

As to `CCCOc1ccc(OC)cc1-c1ncc(C(N)=O)c(=O)[nH]1`, the melting point fell in the range of 206 to 207 °C.

Compound `Cc1c(SCCCSc2ccc3ncc([N+](=O)[O-])n3n2)ccnc1CCl` returned a melting point of 155 to 156 °C.

`O=C(O)c1ccc(-n2c(-c3ccccc3)cc3c2CCCC3)cc1O` came in with a melting point of 193 to 195 °C.

With `Cc1ccc(CC#N)c(OCc2ccc(OCc3nc(-c4ccccc4)oc3C)cc2)n1`, the melting point fell in the range of 122 to 123 °C.

Regarding `CN(C)c1nc2n(n1)Cc1ccccc1-2`, the melting point lay within 164 to 166 °C.

The compound `CN1CCCN(Cc2nc(-c3ccc4c(c3)Nc3ccccc3S4)cs2)CC1` came in with a melting point of 135 to 137 °C.

In turn, `CC(=O)Nc1cc(C)c([N+](=O)[O-])cc1CCOC(C)=O` came in with a melting point of 125 °C.

In turn, `CC(C)c1cc(O)cc2c1C(=O)N(CBr)S2(=O)=O` had a melting point of 167 to 169 °C.

For the compound `COc1ccc(CNc2n[nH]c3ncnc(Nc4cccc(Cl)c4)c23)cc1`, the melting point was 222 to 223 °C.

Consider `CNC(=O)N(O)C(C)c1ccc(Br)cc1` (stereo not drawn), for which the melting point fell in the range of 129 to 130 °C.

The compound `CCC(=O)NNC(=O)c1ccncc1` displayed a melting point of 131 °C.

`O=C(O)COc1ccc2c(=O)c3cc(Cl)ccc3oc2c1Cl` gave a melting point of 262 to 263 °C.

With `O=C(O)c1cccc(Nc2nccc(-c3cccnc3)n2)c1`, the melting point was in the range of 291 to 295 °C.

`CC(C)(C)CN1C(=O)C2CC2(c2ccc(N)cc2)C1=O` (stereo not drawn) displayed a melting point of 118 to 119 °C.

`Cc1ccc(OC2CCN(C(=O)C(=O)Nc3ccc4[nH]c(=O)[nH]c4c3)CC2)cc1` yielded a melting point of 294 °C.

In the case of `CNC(=C[N+](=O)[O-])NCc1ccc(Cl)cc1`, the melting point lay in the range of 219 to 220 °C.

Take `COc1cc(N2CCN([C@H]3CC[C@H](c4cn(C)c5ccc(C#N)cc54)CC3)CC2)c2ncccc2c1C`: the melting point lay in the range of 212 to 213 °C.

In turn, `Cc1ccc(-n2c3ccc(C)cc3c3cc(-n4ccnc4-c4nccn4-c4ccc5c(c4)c4cc(C)ccc4n5-c4ccc(C)cc4)ccc32)cc1` yielded a melting point of 208 to 214 °C.

`CCCNC(=O)N(Cc1ccccc1)NC(=O)OC(C)(C)C` had a melting point of 123 to 124 °C.

Consider `Cn1cc(C2=NOCCO2)c(Cl)n1`, for which the melting point was 112 °C.

In the case of `CC(C)(C(=O)O)c1ccc(OCc2ccccc2)cc1`, the melting point was in the range of 128 to 130 °C.

For the compound `CC(=O)NCc1ccc2c(c1)[C@@H](N1CCCC1=O)[C@H](O)C(C)(C)O2` (relative stereo), the melting point lay in the range of 206 to 208 °C.

For `CC(C)(CO)NS(=O)(=O)c1cc(NC(=O)c2cnn3c(C(F)(F)F)cc(-c4ccc(C(F)(F)F)c(Cl)c4)nc23)c(Cl)s1`, the melting point is 254 °C.

For `CCOC(=O)C1=C(N)NC(C)=C(C(=O)OC)C1c1ccccc1C#N` (stereo not drawn), the melting point amounted to 224 °C.

For `O=c1ncn(Cc2ccc(Cl)cc2)c2cc(-c3ccc(OCc4cccnc4)cc3)sc12`, the melting point lay in the range of 255 to 257 °C.
